Experiment [1] deals with T1, PAR-4 (Homo sapiens, UniProt Q96RI0).
T1 construct: endogenous in cells; host or cells: washed platelets
T1 sequence (Q96RI0 18-385): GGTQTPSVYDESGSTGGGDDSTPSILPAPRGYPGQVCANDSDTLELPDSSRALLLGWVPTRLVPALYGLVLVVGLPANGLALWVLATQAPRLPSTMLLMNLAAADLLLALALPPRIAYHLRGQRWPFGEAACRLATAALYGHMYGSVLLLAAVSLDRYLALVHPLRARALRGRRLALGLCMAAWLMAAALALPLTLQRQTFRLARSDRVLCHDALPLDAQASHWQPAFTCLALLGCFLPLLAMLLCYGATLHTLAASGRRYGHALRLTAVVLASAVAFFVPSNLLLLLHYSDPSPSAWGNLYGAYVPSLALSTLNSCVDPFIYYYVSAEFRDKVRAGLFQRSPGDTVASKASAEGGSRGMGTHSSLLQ
In words: PAC-1 binding assay, washed platelets stimulated with PAR-4-AP (flow cytometry). It counts as cell-based. The settings on record: PAR-4-AP stimulation; for remaining activity at 10 µM: 10 μM antagonist, 100% = DMSO control stimulated, read-out: PAR-4 AP % Max PAC-1 binding (10 μM); for IC50: read-out: PAR-4 AP % Max PAC-1 binding (IC50 [M]). As for the experimental part: (§1) PAC-1 Binding assay: 60 μL of washed platelets (Tyrodes buffer containing 0.1% BSA) at a concentration of 0.15×10^8 platelets/mL were added to 5 mL round bottom polystyrene tubes (BD, Franklin Lakes, N.J.). FITC conjugated PAC-1 (BD Biosciences, San Jose, Calif.) antibody was diluted (to the manufacturers recommended concentration) in Tyrode's buffer containing 0.1% BSA. 40 μL of diluted antibody was added to the platelets and allowed to incubate for 5 minutes. Platelets were pre-treated with indicated concentrations of antagonist or DMSO control for 20 minutes (the final DMSO concentration was 0.5%) followed by addition of PAR-1-AP (GL Biochem, Shanghai, China), PAR-4-AP, or gamma-thrombin for 10 minutes. Platelet activity was quenched by the addition ice cold 1.5% paraformaldehyde followed by dilution in 1× phosphate buffered saline. Platelets were stored up to 18 hours at 4° C. before flow cytometric analysis. Analysis was carried out on a BD FACS Canto II or BD LSRII (Franklin Lakes, N.J.). Fluorescent intensity was determined for at least 20,000 events within the platelet gate (forward scatter versus side scatter). Data was collected and analyzed via FACS DiVa or FlowJo software. Flow cytometric data analysis was conducted by the following method. The DMSO-vehicle treated control was subtracted from each data point. 100% response for PAR-4-AP was determined for each individual as the DMSO treated control stimulated with PAR-4-AP, PAR-1-AP, or gamma-thrombin. Data was plotted in GraphPad PRISM v.5.0. For compounds with a notable reduction in PAC-1 binding response, dose response curves and IC50 values were generated using the inhibitory sigmoidal dose response ‘variable slope’ parameter. Results were plotted as mean±SEM.

For experiment [2], the target named is T1, PAR-4. In words: PAC-1 binding assay, washed platelets stimulated with 100 nM gamma-thrombin (flow cytometry). As to conditions: 100 nM γ-thrombin stimulation. Format: cell-based.
Text: Gamma-thrombin is a proteolytic product of alpha-thrombin cleavage by a serine protease. Cleavage results in the disruption of exosite I which interacts directly with the hirudin-like domain of its primary substrates fibrinogen and protease-activated receptor 1 (PAR1). […] See Soslau, G., Class, R., Morgan, D. A., Foster, C., Lord, S. T., Marchese, P., and Ruggeri, Z. M. (2001) Unique pathway of thrombin-induced platelet aggregation mediated by glycoprotein Ib, The Journal of biological chemistry 276, 21173-21183. Gamma-thrombin (Enzyme Research Laboratories, South Bend, Indiana) is produced by trypsin-sepharose cleavage of alpha-thrombin. To neutralize alpha-thrombin contamination, stock solutions of gamma-thrombin are preincubated with 1 unit/mL hirudin prior 100 fold dilution into the sample for platelet stimulation. […] Single point screens and concentration response curves are conducted with 316 nanomolar or 100 nanomolar gamma-thrombin using PAC1 and CD62p binding.
as §1

pIC50: −log10 of the molar value.

On to `COc1nn2cc(-c3cccc(OCc4csc(-c5ccccc5)n4)c3)nc2s1` [Example B47], for which, at PAR-4 [1], the remaining activity at 10 µM was -0.27% and the IC50 amounted to 4.32e-08 M. Further, at PAR-4 [2], the pIC50 is ≤ 6.00.

For `COc1nn2cc(-c3ccc4sccc4c3)nc2s1` [Example B54], on PAR-4 [1], the remaining activity at 10 µM was determined as 20.7% and the concentration for half-maximal inhibition (IC50) came out at 7.75e-08 M. At PAR-4 [2], the pIC50 was < 6.00.

Source of the values: patent US20190119300A1, “SUBSTITUTED AND FUSED 6-MEMBERED PROTEASE ACTIVATED RECEPTOR 4 (PAR-4) ANTAGONISTS” (Vanderbilt University, priority 2016, published 2019).
